Assay results reported in US10981932B2, “Macrocyclic indole derivatives” (Bayer Aktiengesellschaft, priority 2016, dated 2021).
Values joined by “and” are separate entries in the source; they are usually repeats but may differ in a detail not shown here. Equal entries are not always repeated. Structures can show the parent of a compound that is named as a salt.

Tests used:
[1] = molecular target: MCL-1 (Homo sapiens, UniProt Q07820); experiment: Protein-protein interaction assay MCL-1/Noxa BH3 peptide (MCL-1 assay), TR-FRET; assay type: binding; conditions: MBP-MCL-1 / Noxa BH3-derived peptide, median
MCL-1, sequence (Q07820 whole entry): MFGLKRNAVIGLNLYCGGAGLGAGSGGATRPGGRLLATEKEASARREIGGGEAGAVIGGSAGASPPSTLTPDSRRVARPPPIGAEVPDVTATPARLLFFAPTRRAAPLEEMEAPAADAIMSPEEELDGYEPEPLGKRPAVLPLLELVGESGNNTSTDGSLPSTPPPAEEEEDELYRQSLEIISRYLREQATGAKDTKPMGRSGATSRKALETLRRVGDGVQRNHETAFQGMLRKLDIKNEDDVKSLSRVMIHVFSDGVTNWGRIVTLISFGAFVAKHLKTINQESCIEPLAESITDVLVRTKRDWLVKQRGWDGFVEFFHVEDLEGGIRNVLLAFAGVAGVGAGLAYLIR
Procedure, shortened: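 Inhibition values were normalized between DMSO controls with all reagents and controls lacking MCL-1. The binding competition used 1 nM MBP-MCL-1 in pH 7 Tris buffer containing 50 mM KF and 100 mM NaCl, with a 10 min compound preincubation at 22 °C.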

[2] = tested on: SUDHL5; experiment: Induction of caspase-3/7 activity (Caspase-Glo 3/7), SUDHL5; assay type: cell-based; conditions: caspase-3/7 induction, SUDHL5 cells, 3 h treatment; median
Procedure, shortened: (§1)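 Apoptosis induction measured as caspase-3/7 activity (Caspase-Glo 3/7) in DLBCL lines after 3 h treatment at 37 °C; EC50 derived relative to the reference compound's maximal induction, with C0 fixed at 1.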

[3] = tested on: SUDHL10; experiment: Induction of caspase-3/7 activity (Caspase-Glo 3/7), SUDHL10; assay type: cell-based; conditions: caspase-3/7 induction, SUDHL10 cells, 3 h treatment; median
Procedure, shortened: as §1

[4] = tested on: SUDHL5; experiment: Anti-proliferative effect (CellTiter-Glo, 72 h), SUDHL5; assay type: cell-based; conditions: SUDHL5 cells, antiproliferation, 72 h incubation, median, read-out: Antiproli SUDHL5 [M] (median)
Procedure, shortened: (§2)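 After seeding, one plate is read right away by CellTiter-Glo luminescence to fix time zero. The treated plates stay at 37 °C in humidified air for 72 h and are then measured with the same reagent and 10 min incubation.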

[5] = tested on: SUDHL10; experiment: Anti-proliferative effect (CellTiter-Glo, 72 h), SUDHL10; assay type: cell-based; conditions: SUDHL10 cells, antiproliferation, 72 h incubation, median, read-out: Antiproli SUDHL10 [M] (median)
Procedure, shortened: as §2

[6] = tested on: A2780; experiment: Anti-proliferative effect (CellTiter-Glo, 72 h), A2780; assay type: cell-based; conditions: A2780 cells, median, read-out: IC50 antiproliferation assay A2780 [M] (median)
Procedure, shortened: as §2

[7] = tested on: SUDHL5; experiment: Induction of cytotoxicity (CellTiter-Glo, 5 h), SUDHL5; conditions: read-out: Cytotox SUDHL5 [M] (median); SUDHL5 cells, cytotoxicity induction, CellTiter-Glo, 5 h incubation, median
[8] = tested on: SUDHL10; experiment: Induction of cytotoxicity (CellTiter-Glo, 5 h), SUDHL10; conditions: read-out: Cytotox SUDHL10 [M] (median); SUDHL10 cells, cytotoxicity induction, CellTiter-Glo, 5 h incubation, median

Row | IC50 [1] [µM] | EC50 [2] [µM] | EC50 [3] [µM] | IC50 [4] [M] | IC50 [5] [M] | IC50 [6] | SMILES | IC50 [7] [M] | IC50 [8] [M]
1 | 0.000796 | 0.324 | 0.614 | 7.58e-07 | 1.38e-06 | 7.74e-06 M | Cn1nc(COc2ccc(N3CCN(S(=O)(=O)C4CC4)CC3)cc2)c2c1COCCCCn1c(C(=O)O)c(CCCOc3cccc4ccccc34)c3cccc-2c31 (single isomer, unassigned; enantiomer 2) [Example 1-13, 3-({4-[4-(cyclopropylsulfonyl)piperazin-1-yl]phenoxy}methyl)-1-methyl-7-[3-(naphthalen-1-yloxy)propyl]-1,10,11,12,13,15-hexahydropyrazolo[4′,3′:9,10][1,6]oxazacycloundecino[8,7,6-hi]indole-8-carboxylic Acid (Enantiomer 2)] | 4.1e-07 | 4.36e-07
2 | 0.00169 | 2.15 | 7.46 | 4.32e-06 | 9.57e-06 | 2e-05 M and > 3.3e-05 M | Cc1nn(C)c2c1-c1cccc3c(CCCOc4ccc(F)c5ccccc45)c(C(=O)O)n(c13)CCCCOC2 (single isomer, unassigned; enantiomer 2) [Example 023, 7-{3-[(4-fluoronaphthalen-1-yl)oxy]propyl}-1,3-dimethyl-1,10,11,12,13,15-hexahydropyrazolo[4′3′:9,10][1,6]oxazacycloundecino[8,7,6-hi]indole-8-carboxylic acid-N-ethylethanamine Salt (Enantiomer 2)] | 1.84e-06 | 5.85e-06
3 | 0.0322 | 21.9 | 18.6 | 8.04e-06 | 8.37e-06 | 1.14e-05 M | Cc1c2c(nn1CCN1CCOCC1)CN(C)CCCn1c(C(=O)O)c(CCCOc3cccc4ccccc34)c3cccc-2c31 (single isomer, unassigned; enantiomer 2) [Example 061, 7,11-dimethyl-10-[2-(morpholin-4-yl)ethyl]-1-[3-(naphthalen-1-yloxy)propyl]-4,5,6,7,8,10-hexahydropyrazolo[3′,4′:7,8][1,5]diazecino[9,10,1-hi]indole-2-carboxylic Acid (Enantiomer 2)] | 1.63e-05 | 1.75e-05
4 | 0.0269 | > 33 | > 33 | 1.14e-05 | 1.26e-05 | 1.3e-05 M | Cc1ccc2c(CCCOc3cccc4ccccc34)c(C(=O)O)n3c2c1-c1c(nn(C)c1C)CN(C)CCC3 (single isomer, unassigned; enantiomer 2) [Example 074, 7,10,11,12-tetramethyl-1-[3-(naphthalen-1-yloxy)propyl]-4,5,6,7,8,10-hexahydropyrazolo[3′,4′:7,8][1,5]diazecino[9,10,1-hi]indole-2-carboxylic Acid (Enantiomer 2)] | 1.2e-05 | 1.17e-05
